{"source": "patent US20060123501A1", "about": "“Method for treating inflammatory disorders” (priority 2004, published 2006)", "assay_type_in_all_cases": "in vivo, mouse", "key": {"[1]": {"test_system": "cIAP2−/− and cIAP2+/+ mice", "experiment": "Serum cytokine levels (ELISA) after i.p. LPS", "description": "LPS directly activates macrophages to produce large amounts of IL-1β and TNF-α and to mediate a cascade of events leading to endotoxic shock. We therefore assayed the levels of these pro-inflammatory cytokines in serum from cIAP2^−/− mice treated with LPS (35 mg LPS/kg). In cIAP2^−/− mice, IL-1β serum levels peaked at 4 h and then markedly dropped off (Table 4). This was in contrast to littermate controls where IL-1β levels decreased much later. […] As a further study, we also investigated the serum concentrations of IL-12 (Table 4) after an injection of LPS (35 mg/kg), yet again, we observed an attenuation of a macrophage cytokine, IL-12, by the 6 hour time point. Nevertheless, cIAP2^−/− mice did display early outward signs of sepsis, such as eye exudates and ruffled fur; however, their condition quickly ameliorated, corresponding to the observed waning of the LPS-induced inflammatory cytokines seen within the cIAP2^−/− mice.\nAdult 4-6 week old mice (n=3), cIAP2^−/− and littermate control mice, were injected i.p. with a LD100 dose of LPS (35 mg LPS/kg). At the appropriate times mice were anesthetized with phenobarbital and killed by cervical dislocation. The plasma was then collected from these animals and used to determine serum concentrations of IL-1β, TNF-α and IL-12 via an ELISA kit (R & D Systems)."}, "[2]": {"test_system": "peritoneal- and splenic-derived macrophages", "experiment": "Percentage and apoptotic status (Annexin V) of peritoneal and splenic macrophages after i.p. LPS", "description": "(§1) To determine the apoptotic sensitivity of cIAP2^−/− macrophages within an LPS-induced pro-inflammatory environment, the peritoneal macrophage cell numbers before and during an endotoxin-elicited response were assessed by trypan blue exclusion, Diff Quik™ staining kit and flow cytometry (using the macrophage marker PE conjugated α-F4/80 antibody). […] However, total lymphocyte cell count numbers (B and T cells) were comparatively unaffected in both animal types (FIG. 5D). In addition, at 5 hours post LPS injection both the peritoneal and splenic macrophages from cIAP2^−/− mice stained ˜100% positive for Annexin V (Table 5). Therefore, peritoneal and splenic macrophages from cIAP2^−/− mice undergoing LPS-induced endotoxic shock were highly sensitive to apoptotic stimuli compared to control littermates, in vivo. Liver-derived macrophages are key mediators of LPS-induced endotoxic shock (7, 12). Therefore, to further investigate the survival status of macrophages within LPS treated cIAP2^−/− mice we examined cell count levels of liver-derived macrophages within liver sections. Macrophage cell count numbers within both cIAP2^−/− and control mice were similar at 2 hours post-IP LPS treatment (FIG. 6A), 235+/−35 and 271+/−29, respectively (n=5, average of 3 sections (average of 5 fields per section) per mouse, P<0.01). However, at the 6 hour time point (FIG. 6B), there was a precipitous drop of liver-derived macrophages of the cIAP2^−/− mice, 21+/−12 versus that of the littermates, 148+/−19 (n=5, average of 3 sections (average of 5 fields per section) per mouse, P<0.01). Therefore, like peritoneal and splenic macrophages, the liver-derived macrophages from cIAP2^−/− are highly sensitive to LPS in vivo.\nAdult 4-6 week old mice (n=6) were injected i.p. with LPS (35 mg LPS/kg) at time 0 and 5 hours the mice were euthanized and the cells of the peritoneum were collected and stained to determine macrophage, T and B cell percentages. The macrophages were also stained with FITC labeled Annexin V (Immunotech, Marseille, France) to determine apoptotic status.\nT and B cells were isolated from mouse lymphoid tissue (spleen) by first mincing and then pressing the tissue through a 10 μm metal mesh and were then counted by using trypan blue exclusion method. Macrophages were harvested from mice using an inter-peritoneal (i.p.) lavage ([…]: 5% FCS, 50 μM β-mercaptoethanol, […] L-glutamine, penicillin and streptomycin, at 4° C.) and washed once (centrifuged at 800 Xg for 15 min) and resuspended at ˜2×10^7 cells/ml for peritoneal macrophages. Subsequently, peritoneal macrophages were layered on 5 ml of room temperature Lympholyte-M (CedarLane, Canada) and centrifuged at 1500×g for 20 min at room temperature. For splenic macrophages 3 ml of the minced and pressed tissue (˜2×10^7 splenocytes/ml) was layered on 5 ml of room temperature Lympholyte-M (CedarLane, Canada) and centrifuged at 1500×g for 20 min at room temperature. Subsequently, either peritoneal or spleen-derived macrophages were collected from the interface layer, washed twice with complete DMEM and re-suspend in 1 ml complete DMEM. The resulting cells were then counted by using typan blue exclusion and Diff Quik™ Stain Kit (IMEB INC, San Marcos, Calif.). Cells (10^5-10^6) were incubated with the following conjugated monoclonal antibodies: α-CD3ε-flourescein isohiocyanate (FITC), CD4-phycoerythin (PE), CD8α-Cy-Chrome, CD69-PE; B229-FITC, B220-PE, CD11b-Cy-Chrome, (Pharmigen) F4/80-FITC and F4/80PE (Cedarlane Laoratories, Hornby, ON, Canada). Flow cytometric analyses were performed on a Coulter XL cytometer (Coulter, Canada). Concentrations of TNF-α and IL-1β, in primary tissue culture supernatants were determined by ELISA kit (R&D Systems)."}, "[3]": {"test_system": "liver-derived macrophages", "experiment": "Liver-derived macrophage cell counts in liver sections after i.p. LPS", "description": "Liver tissue derived from cIAP2^−/− (upper panels) and cIAP2^+/+ mice (lower panels) pre-treated with LPS (35 mg/kg) for 2 hours (a) or 6 hours (b). cell counts (n=5, average of 3 sections (average of 5 fields per section) per mouse, P<0.01) are shown within each anti-F4/80 FITC conjugated antibody stained panel along with the standard deviation.\nas §1"}, "[4]": {"details": "cIAP2+/+ mice, 2 hours after i.p. LPS 35 mg/kg"}, "[5]": {"details": "cIAP2+/+ mice, 6 hours after i.p. LPS 35 mg/kg"}, "[6]": {"details": "cIAP2+/+ mice, 10 hours after i.p. LPS 35 mg/kg"}, "[7]": {"details": "cIAP2−/− mice, 2 hours after i.p. LPS 35 mg/kg"}, "[8]": {"details": "cIAP2−/− mice, 6 hours after i.p. LPS 35 mg/kg"}, "[9]": {"details": "cIAP2−/− mice, 10 hours after i.p. LPS 35 mg/kg"}, "[10]": {"details": "cIAP2+/+ mice, Peritoneal cavity, 0 hrs post-LPS"}, "[11]": {"details": "cIAP2+/+ mice, Peritoneal cavity, 5 hrs post-LPS"}, "[12]": {"details": "cIAP2+/+ mice, Spleen, 0 hrs post-LPS"}, "[13]": {"details": "cIAP2+/+ mice, Spleen, 0 hrs post-LPS (first Spleen line)"}, "[14]": {"details": "cIAP2−/− mice, Peritoneal cavity, 0 hrs post-LPS"}, "[15]": {"details": "cIAP2−/− mice, Peritoneal cavity, 5 hrs post-LPS"}, "[16]": {"details": "cIAP2−/− mice, Spleen, 0 hrs post-LPS"}, "[17]": {"details": "cIAP2−/− mice, Spleen, 0 hrs post-LPS (first Spleen line)"}}, "data": [{"substance": "lipopolysaccharide [LPS]", "values": [{"measurement": "IL-1β Serum Levels", "setting": "[1]; [4]", "value": "476 ± 24", "unit": "pg/mL"}, {"measurement": "IL-12 Serum Leves", "setting": "[1]; [4]", "value": "210 ± 17", "unit": "pg/mL"}, {"measurement": "TNFα Serum Levels", "setting": "[1]; [4]", "value": "1623 ± 348", "unit": "pg/mL"}, {"measurement": "IL-1β Serum Levels", "setting": "[1]; [5]", "value": "993 ± 158", "unit": "pg/mL"}, {"measurement": "IL-12 Serum Leves", "setting": "[1]; [5]", "value": "260 ± 31", "unit": "pg/mL"}, {"measurement": "TNFα Serum Levels", "setting": "[1]; [5]", "value": "502 ± 56", "unit": "pg/mL"}, {"measurement": "IL-1β Serum Levels", "setting": "[1]; [6]", "value": "669 ± 48", "unit": "pg/mL"}, {"measurement": "TNFα Serum Levels", "setting": "[1]; [6]", "value": "371 ± 64", "unit": "pg/mL"}, {"measurement": "IL-1β Serum Levels", "setting": "[1]; [7]", "value": "314 ± 153", "unit": "pg/mL"}, {"measurement": "IL-12 Serum Leves", "setting": "[1]; [7]", "value": "152 ± 24", "unit": "pg/mL"}, {"measurement": "TNFα Serum Levels", "setting": "[1]; [7]", "value": "1589 ± 413", "unit": "pg/mL"}, {"measurement": "IL-1β Serum Levels", "setting": "[1]; [8]", "value": "476 ± 78", "unit": "pg/mL"}, {"measurement": "IL-12 Serum Leves", "setting": "[1]; [8]", "value": "11 ± 5", "unit": "pg/mL"}, {"measurement": "TNFα Serum Levels", "setting": "[1]; [8]", "value": "202 ± 89", "unit": "pg/mL"}, {"measurement": "IL-1β Serum Levels", "setting": "[1]; [9]", "value": "162 ± 21", "unit": "pg/mL"}, {"measurement": "TNFα Serum Levels", "setting": "[1]; [9]", "value": "8 ± 7", "unit": "pg/mL"}, {"measurement": "Time of peak IL-1β serum levels", "setting": "[1]; cIAP2−/− mice, LPS 35 mg/kg", "value": 4, "unit": "h"}, {"measurement": "TNF-α serum levels", "setting": "[1]; cIAP2−/− mice, by 10 hours, LPS 35 mg/kg", "value": "approximately 10 pg/ml"}, {"measurement": "TNF-α serum levels (stabilized, maintained until death)", "setting": "[1]; littermate controls, LPS 35 mg/kg", "value": "approximately 400 pg/ml"}, {"measurement": "Percent apoptotic", "setting": "[2]; [10]", "value": "10 ± 2", "unit": "%"}, {"measurement": "Percent macrophage", "setting": "[2]; [10]", "value": "54 ± 29", "unit": "%"}, {"measurement": "Percent apoptotic", "setting": "[2]; [11]", "value": "66 ± 8", "unit": "%"}, {"measurement": "Percent macrophage", "setting": "[2]; [11]", "value": "31 ± 17", "unit": "%"}, {"measurement": "Percent apoptotic", "setting": "[2]; [12]", "value": "46 ± 8", "unit": "%"}, {"measurement": "Percent macrophage", "setting": "[2]; [12]", "value": "28 ± 5", "unit": "%"}, {"measurement": "Percent apoptotic", "setting": "[2]; [13]", "value": "5 ± 3", "unit": "%"}, {"measurement": "Percent macrophage", "setting": "[2]; [13]", "value": "33 ± 15", "unit": "%"}, {"measurement": "Percent apoptotic", "setting": "[2]; [14]", "value": "15 ± 3", "unit": "%"}, {"measurement": "Percent macrophage", "setting": "[2]; [14]", "value": "41 ± 24", "unit": "%"}, {"measurement": "Percent apoptotic", "setting": "[2]; [15]", "value": "100 ± 3", "unit": "%"}, {"measurement": "Percent macrophage", "setting": "[2]; [15]", "value": "8 ± 11", "unit": "%"}, {"measurement": "Percent apoptotic", "setting": "[2]; [16]", "value": "98 ± 4", "unit": "%"}, {"measurement": "Percent macrophage", "setting": "[2]; [16]", "value": "24 ± 8", "unit": "%"}, {"measurement": "Percent apoptotic", "setting": "[2]; [17]", "value": "2 ± 5", "unit": "%"}, {"measurement": "Percent macrophage", "setting": "[2]; [17]", "value": "24 ± 11", "unit": "%"}, {"measurement": "Macrophages positive for Annexin V (apoptotic)", "setting": "[2]; cIAP2−/− mice, peritoneal and splenic macrophages, 5 hours post LPS injection", "value": "~100", "unit": "%"}, {"measurement": "Liver macrophage cell count", "setting": "[3]; cIAP2−/− mice, 2 hours post-IP LPS (35 mg/kg)", "value": "235+/−35"}, {"measurement": "Liver macrophage cell count", "setting": "[3]; cIAP2−/− mice, 6 hour time point post LPS (35 mg/kg)", "value": "21+/−12"}, {"measurement": "Liver macrophage cell count", "setting": "[3]; control mice, 2 hours post-IP LPS (35 mg/kg)", "value": "271+/−29"}, {"measurement": "Liver macrophage cell count", "setting": "[3]; littermates, 6 hour time point post LPS (35 mg/kg)", "value": "148+/−19"}]}]}
